These are literature values, as cited in US4101650A, “Pepstatin floating minicapsules” (Zaidan Hojin Biseibutsu Kagaku Kenkyu Kai, priority 1977, dated 1978).

Where a SMILES comes first, the peptide text is derived from it. [ ]: non-standard residue; d: D form. The star is where a group is joined. Sta = CC(C)C[C@H](N)[C@@H](O)CC(=O)O; Isovaleryl = CC(C)CC(=O)*

One series addresses cathepsin D (Homo sapiens, UniProt P07339).
Another series deals with T1, renin (Homo sapiens, UniProt P00797).
T1 sequence (P00797 67-406): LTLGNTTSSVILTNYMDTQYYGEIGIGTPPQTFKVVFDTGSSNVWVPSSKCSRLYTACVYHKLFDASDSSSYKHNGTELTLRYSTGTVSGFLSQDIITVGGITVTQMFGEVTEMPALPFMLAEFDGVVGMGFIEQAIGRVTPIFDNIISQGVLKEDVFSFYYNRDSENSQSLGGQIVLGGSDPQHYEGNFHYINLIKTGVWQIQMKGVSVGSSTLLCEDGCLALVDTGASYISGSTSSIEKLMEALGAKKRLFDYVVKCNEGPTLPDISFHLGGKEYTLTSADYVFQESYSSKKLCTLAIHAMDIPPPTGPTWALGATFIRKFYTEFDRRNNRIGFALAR

Chain of cathepsin D (P07339 65-412, species assumed): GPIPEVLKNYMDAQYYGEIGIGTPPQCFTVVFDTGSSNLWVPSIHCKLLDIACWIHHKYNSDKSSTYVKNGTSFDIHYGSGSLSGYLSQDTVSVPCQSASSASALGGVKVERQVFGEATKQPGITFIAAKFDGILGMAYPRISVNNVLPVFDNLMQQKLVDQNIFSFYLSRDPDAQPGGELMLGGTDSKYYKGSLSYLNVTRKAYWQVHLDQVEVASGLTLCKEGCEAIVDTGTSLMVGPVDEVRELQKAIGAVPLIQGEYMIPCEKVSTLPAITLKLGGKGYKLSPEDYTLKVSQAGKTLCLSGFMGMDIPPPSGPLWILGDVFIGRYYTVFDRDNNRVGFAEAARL

As for `CC(C)CC(=O)N[C@H](C(=O)N[C@H](C(=O)N[C@@H](CC(C)C)[C@@H](O)CC(=O)N[C@@H](C)C(=O)N[C@@H](CC(C)C)[C@@H](O)CC(=O)O)C(C)C)C(C)C` [Pepstatin, RCO-L-Val-L-Val-AHMHA-L-Ala-AHMHA] (Isovaleryl-VV[Sta]A[Sta]-OH), the inhibition of pepsin result in the series on pepsin is “very strongly”. Moreover, the “inhibition of cathepsin D” value on cathepsin D is listed as “very strongly”. Further, the inhibition of renin result at renin is “relative strong inhibiton”.
